Data as given in patent US3974187A, “Synthetic analogs having the activity of naturally occurring forms of coenzyme Q” (priority 1975, dated 1976).

What was measured:
[1] = literature / general knowledge; cited from earlier work
[2] = test system: nutritionally dystrophic rabbit; conditions: Farley et al. 1968; intravenous administration; cited from earlier work
[3] = test system: oxidative phosphorylation at site I (ETPH particles); assay: Assay of CoQ and analogs for oxidative phosphorylation at site I with ETPH particles; format: biochemical; parameters: Δ NADH / Δ G6P: unit not given here; conditions: for biochemical effectiveness in the site I assay system: compared with CoQ1
Experimental: Assays were performed with 200 μg of ETPH particles as described by
Schatz and Racker (J. Biol. Chem., 241, 1429 (1966)). The concentration o
the CoQ compounds was 0.12 mM. Rotenone was added at 2 μM

Solubility in water = format: physicochemical; conditions: in the site I assay system
[4] = test system: succinoxidase system of beef heart mitochondria; assay: CoQ activity: restoring succinoxidase activity of pentane-extracted beef heart mitochondria (manometric); format: biochemical; parameters: key to CoQ10 Act. Index: activity index relative to CoQ10 standard; conditions: for Activation at 400 nMoles %: 400 nmoles of analog, relative to the response to 400 nmoles CoQ10; for Maximum Activation: 400 nm of analog per flask, percent of the response to CoQ4; for CoQ10 Act. Index: calculated from relative effectiveness, activity in terms of that of CoQ10; for effectiveness / utilization in the succinoxidase mitochondrial system: interpretation of Table II; for Estimated nMoles Required for 50% Activation: level required to reinstate approximately 50% of maximum succinoxidase activity, 0.65-0.85 mg PEBHM; for Relative Effectiveness: molar amounts of analog and CoQ4 required to restore the same level of succinoxidase to PEBHM, relative to CoQ4
Experimental: The CoQ activity of each analog was assessed by examining the ability of the analog to stimulate the succinoxidase activity of beef-heart mitochondria (BHM) from which the naturally occurring CoQ had been removed by pentane extraction. (Table I) Beef heart mitochondria were prepared by the method of Smith (Methods Enzymol., 10, 81 (1967). The pentane extraction was conducted as described by Szarkowska (Arch. Biochem. Biophys., 113, 519 (1966); PEBHM was frozen and used within 10 days of preparation, since pentane extraction decreases the stability of BHM. Succinoxidase activity was determined manometercally, using a Gilson differential respirometer (Iwamoto, Y., Hansen, I. L., Porter, T. H., and Folkers, K., Biochem. Biophys. Res. Comm., 58, 633 (1974), and is reported as […] of oxygen per minute per milligram of protein. A commercial soybean phospholipid preparation (Asolectin), dispersed by sonication (Fleischer, S. and Fleischer, B., Methods Enzymol., 10, 421 (1967), was used to provide phospholipid micelles, and test substances were added as solutions in ethanol. Within Table I are listed the CoQ activities of the analogs and selected reference compounds. The CoQ10 Activity Index is a measure of the effectiveness of the analogs, relative to the standard, in stimulating a submaximal response of succinoxidase activity. Specific activity of the succinoxidase system in response to stimulation by exogenous CoQ10 is given in footnote a of the Table. The quantity of analog to be added was chosen to provide a level of succinoxidase activity corresponding to the nearly linear portion of the activity: dose curve, in which succinoxidase activity stimulated is approximately proportional to the level of analog used. The second column lists the nanomolar quantity of analog required to provide a stimulation of about half of the maximum response. The relative response of the succinoxidase system to 400 nmol of each analog is listed in the third column of the Table. This level of analog is sufficient to insure significant excess over the stoichiometric amount, and maximum response to CoQ4 is obtained at one-tenth to one-twentieth of this dose level. The response to 400 nmol of CoQ10 is lower than is the response to other components listed. The very long side-chain of CoQ10, the natural coenzyme, may hinder the transport of exogenous CoQ10 to the active site.

[5] = test system: nutritionally deficient children who were anemic; conditions: Majaj and Folkers 1968; cited from earlier work
[6] = human; cited from earlier work
periodontal disease = conditions: Matsummura et al. 1973; cited from earlier work
complex III = complex III (Bos taurus, UniProt P00157+P13272); assay: Reduction of cytochrome c by reduced CoQ and analogs catalyzed by complex III; format: biochemical; conditions: for response of complex III system to the reduced analog as substrate: after reduction and extraction
Experimental: Reduction of cytochrome c was measured at 550-540 nm. The reaction mixtur
contained in 1.0 ml: […] KP1, pH 7.5; 0.05 mM EDTA; 8 μM
cytochrome c1; 10 μM reduced CoQ or analog and 2 μg complex
III. When indicated, antimycin A was added to the assay medium at 1
μg/ml. An extinction coefficient of 19 mM^-^1 was used for […]

Chemical stability = format: physicochemical; conditions: compared with CoQ1 and CoQ2
[7] = CoQ or analog 0.12 nM (footnote 0.12 mM)

solubility in water (Solubility in water) | Activation at 400 nMoles % [4] | Maximum Activation [4] | CoQ10 Act. Index [4] | Estimated nMoles Required for 50% Activation [4] | Relative Effectiveness [4] | response of complex III system to the reduced analog as substrate (complex III) | SMILES | therapeutic activity, saving the life of the dying dystrophic rabbit [2] | biochemical effectiveness in the site I assay system [3] | effectiveness / utilization in the succinoxidase mitochondrial system [4] | hematological activity [5] | other results
 |  |  |  |  |  |  | COC1=C(OC)C(=O)C(C/C=C(\C)CC/C=C(\C)CCC=C(C)C)=C(C)C1=O [CoQ3, coenzyme Q3] | did not save the life of the dying dystrophic rabbit |  |  |  | chemical stability of isoprenoid quinones [1]: relative chemical instability
somewhat more soluble |  |  |  |  |  |  | COC1=C(OC)C(=O)C(C/C=C(\C)CC/C=C(\C)CC/C=C(\C)CC/C=C(\C)CC/C=C(\C)CCC=C(C)C)=C(C)C1=O [CoQ6, reference compound] |  | not adequate |  |  | 
 | 121% | 95% | 2.2 | 19.4 nmol | 10.3% |  | COC1=C(OC)C(=O)C(C/C=C(\C)CCCC(C)CCCC(C)CCCC(C)C)=C(C)C1=O (stereo not shown) [H6 CoQ4, hexahydrocoenzyme Q4, reference compound] |  |  |  | showed hematological activity | treatment of periodontal disease (periodontal disease): enhanced treatment of periodontal disease
lower solubility in water | 121% | 94% | 4.4 | 9.5 nmol | 21% | virtually unresponsive | CCCCCCCCCCCCCCCC1=C(C)C(=O)C(OC)=C(OC)C1=O [Pentadecyl, 2,3-Dimethoxy-5-methyl-6-pentadecyl-1,4-benzoquinone] |  | not suitable or as effective |  |  | inhibition of complex III system (complex III): no inhibition
 | 110% | 86% | 1.2 | 35.1 nmol | 5.7% | excellent substrates | CCCCCC1=C(C)C(=O)C(OC)=C(OC)C1=O [Pentyl, 2,3-Dimethoxy-5-methyl-6-pentyl-1,4-benzoquinone] |  | as biochemically effective as CoQ1 | about as little effective as coenzyme Q10 itself |  | P/NADH Ratio [3, 7]: 0.44; Δ G6P [3, 7]: 0.036; Δ NADH [3, 7]: 0.082; μmoles NADH /min/mg ([3]; CoQ or analog 0.12 nM (footnote 0.12 mM), 200 μg ETPH particles, no rotenone): 0.47 μmoles NADH /min/mg; μmoles NADH min/mg +Rotenone ([3]; CoQ or analog 0.12 nM (footnote 0.12 mM), rotenone 2 μM): 0.02 μmoles NADH min/mg; % Inhibition by Rotenone ([3]; rotenone 2 μM, CoQ or analog 0.12 nM (footnote 0.12 mM)): 95%; nMoles Cytochrome c Reduced/min (complex III; 10 μM reduced CoQ or analog, 2 μg complex III, 8 μM cytochrome c): 14.6 nmol/min; Non-enzymatic Rate of Cytochrome c Reduction (complex III; 10 μM reduced CoQ or analog, blank without complex III): 0.2 nmol/min; % Inhibition by Antimycin A (complex III; antimycin A 1 μg/ml): 100%; chemical stability (Chemical stability; listed as 6-n-pentyl): superior to CoQ1 and CoQ2 in chemical stability; chemical stability (Chemical stability; listed as PB): apparent greater stability

SMILES | solubility in water (Solubility in water) | Activation at 400 nMoles % [4] | Maximum Activation [4] | CoQ10 Act. Index [4] | Estimated nMoles Required for 50% Activation [4] | Relative Effectiveness [4] | response of complex III system to the reduced analog as substrate (complex III) | therapeutic activity, saving the life of the dying dystrophic rabbit [2] | biochemical effectiveness in the site I assay system [3] | effectiveness / utilization in the succinoxidase mitochondrial system [4] | hematological activity [5] | other results
COC1=C(OC)C(=O)C(C/C=C(\C)CC/C=C(\C)CC/C=C(\C)CC/C=C(\C)CC/C=C(\C)CC/C=C(\C)CC/C=C(\C)CC/C=C(\C)CC/C=C(\C)CCC=C(C)C)=C(C)C1=O [CoQ10, coenzyme Q10, reference compound] | too insoluble | 100% | 78% | 1.0 | 41.7 nmol | 4.8% |  | failed to elicit therapeutic activity |  | poorly utilized | showed hematological activity | Specific Activity of the enzyme system ([4]; 10 nmoles CoQ10/flask): 0.160 μatm O2 /mg protein min; Specific Activity of the enzyme system ([4]; 20 nmoles CoQ10/flask): 0.248 μatm O2 /mg protein min; Specific Activity of the enzyme system ([4]; 30 nmoles CoQ10/flask): 0.298 μatm O2 /mg protein min; Specific Activity of the enzyme system ([4]; 40 nmoles CoQ10/flask): 0.344 μatm O2 /mg protein min; Specific Activity of the enzyme system ([4]; 100 nmoles CoQ10/flask): 0.488 μatm O2 /mg protein min; Activation at 3.46 nMoles ([4]; 3.46 (nMoles) CoQ10): no activation; oral absorption [6]: inefficient
